Calls of active or inactive are those of the source. The rule behind the calls is not given here.
What was measured:
[1] = target: T1, Transient receptor potential cation channel subfamily M member 8 (Homo sapiens, UniProt Q7Z2W7); assay: Voltage activation at 12 °C
[2] = target: T1, Transient receptor potential cation channel subfamily M member 8; assay: Transients WS-12 activation
[3] = target: 5-hydroxytryptamine receptor 2B (Homo sapiens) (UniProt P41595); assay: Serotonin 5-HT2b (human) CEREP ligand profiling; details: Compound concentration 10.0 uM
[4] = target: Substance-P receptor (Homo sapiens) (UniProt P25103); assay: Neurokinin 1 (human) CEREP ligand profiling; details: Compound concentration 10.0 uM
[5] = system: Tyrosine-protein kinase ABL1 (Homo sapiens), P00519 [T315I]; details: Compound concentration 1000.0 nM
[6] = target: RAC-alpha serine/threonine-protein kinase (Homo sapiens) (UniProt P31749); details: Compound concentration 1000.0 nM
[7] = target: RAC-gamma serine/threonine-protein kinase (Homo sapiens) (UniProt Q9Y243); details: Compound concentration 1000.0 nM
[8] = system: ALK tyrosine kinase receptor (Homo sapiens), Q9UM73 [C1156Y]; details: Compound concentration 1000.0 nM
[9] = target: Serine/threonine-protein kinase BRSK2 (Homo sapiens) (UniProt Q8IWQ3); details: Compound concentration 1000.0 nM
[10] = target: Calcium/calmodulin-dependent protein kinase type II subunit gamma (Homo sapiens) (UniProt Q13555); details: Compound concentration 1000.0 nM
[11] = target: Cyclin-dependent kinase 4 (Homo sapiens) (UniProt P11802); details: Compound concentration 1000.0 nM
[12] = target: Serine/threonine-protein kinase DCLK1 (Homo sapiens) (UniProt O15075); details: Compound concentration 1000.0 nM
[13] = target: Ephrin type-A receptor 3 (Homo sapiens) (UniProt P29320); details: Compound concentration 1000.0 nM
[14] = target: Ephrin type-A receptor 4 (Homo sapiens) (UniProt P54764); details: Compound concentration 1000.0 nM
[15] = target: Ephrin type-A receptor 5 (Homo sapiens) (UniProt P54756); details: Compound concentration 1000.0 nM
[16] = target: Ephrin type-B receptor 2 (Homo sapiens) (UniProt P29323); details: Compound concentration 1000.0 nM
[17] = target: Ephrin type-B receptor 4 (Homo sapiens) (UniProt P54760); details: Compound concentration 1000.0 nM
[18] = target: Fibroblast growth factor receptor 2 (Homo sapiens) (UniProt P21802); details: Compound concentration 1000.0 nM
[19] = system: Receptor-type tyrosine-protein kinase FLT3 (Homo sapiens), P36888 [UNDEFINED MUTATION]; details: Compound concentration 1000.0 nM
[20] = system: Receptor-type tyrosine-protein kinase FLT3 (Homo sapiens), P36888 [R834Q]; details: Compound concentration 1000.0 nM
[21] = target: Interleukin-1 receptor-associated kinase 1 (Homo sapiens) (UniProt P51617); details: Compound concentration 1000.0 nM
[22] = target: Mitogen-activated protein kinase 9 (Homo sapiens) (UniProt P45984); details: Compound concentration 1000.0 nM
[23] = system: Mast/stem cell growth factor receptor Kit (Homo sapiens), P10721 [V559D,V654A]; details: Compound concentration 1000.0 nM
[24] = target: Mitogen-activated protein kinase kinase kinase 2 (Homo sapiens) (UniProt Q9Y2U5); details: Compound concentration 1000.0 nM
[25] = target: Maternal embryonic leucine zipper kinase (Homo sapiens) (UniProt Q14680); details: Compound concentration 1000.0 nM
[26] = target: Serine/threonine-protein kinase NIM1 (Homo sapiens) (UniProt Q8IY84); details: Compound concentration 1000.0 nM
[27] = target: Mitogen-activated protein kinase 12 (Homo sapiens) (UniProt P53778); details: Compound concentration 1000.0 nM
[28] = target: Serine/threonine-protein kinase PAK 2 (Homo sapiens) (UniProt Q13177); details: Compound concentration 1000.0 nM
[29] = target: Calcium-dependent protein kinase 1 (Plasmodium falciparum) (UniProt P62344); details: Compound concentration 1000.0 nM
[30] = system: Phosphatidylinositol 4,5-bisphosphate 3-kinase catalytic subunit alpha isoform (Homo sapiens), P42336 [H1047Y]; details: Compound concentration 1000.0 nM
[31] = target: Protein kinase C theta type (Homo sapiens) (UniProt Q04759); details: Compound concentration 1000.0 nM
[32] = target: Serine/threonine-protein kinase D1 (Homo sapiens) (UniProt Q15139); details: Compound concentration 1000.0 nM
[33] = target: Protein-tyrosine kinase 2-beta (Homo sapiens) (UniProt Q14289); details: Compound concentration 1000.0 nM
[34] = target: Rho-associated protein kinase 1 (Homo sapiens) (UniProt Q13464); details: Compound concentration 1000.0 nM
[35] = target: Serine/threonine-protein kinase Sgk3 (Homo sapiens) (UniProt Q96BR1); details: Compound concentration 1000.0 nM
[36] = target: SRSF protein kinase 1 (Homo sapiens) (UniProt Q96SB4); details: Compound concentration 1000.0 nM
[37] = target: Serine/threonine-protein kinase 16 (Homo sapiens) (UniProt O75716); details: Compound concentration 1000.0 nM
[38] = target: Tyrosine-protein kinase Tec (Homo sapiens) (UniProt P42680); details: Compound concentration 1000.0 nM
[39] = target: Tyrosine-protein kinase receptor TYRO3 (Homo sapiens) (UniProt Q06418); details: Compound concentration 1000.0 nM
[40] = target: Phosphatidylinositol 3-kinase catalytic subunit type 3 (Homo sapiens) (UniProt Q8NEB9); details: Compound concentration 1000.0 nM
[41] = target: Wee1-like protein kinase (Homo sapiens) (UniProt P30291); details: Compound concentration 1000.0 nM
[42] = target: Serine/threonine-protein kinase 32B (Homo sapiens) (UniProt Q9NY57); details: Compound concentration 1000.0 nM
[43] = target: Mitogen-activated protein kinase kinase kinase 19 (Homo sapiens) (UniProt Q56UN5); details: Compound concentration 1000.0 nM
[44] = target: D(1B) dopamine receptor (Homo sapiens) (UniProt P21918); details: Compound concentration 10.0 uM
[45] = target: Histamine H3 receptor (Homo sapiens) (UniProt Q9Y5N1); details: Compound concentration 10.0 uM
[46] = target: Alpha-2C adrenergic receptor (Homo sapiens) (UniProt P18825); details: Compound concentration 10.0 uM

T1 sequence (Q7Z2W7 whole entry): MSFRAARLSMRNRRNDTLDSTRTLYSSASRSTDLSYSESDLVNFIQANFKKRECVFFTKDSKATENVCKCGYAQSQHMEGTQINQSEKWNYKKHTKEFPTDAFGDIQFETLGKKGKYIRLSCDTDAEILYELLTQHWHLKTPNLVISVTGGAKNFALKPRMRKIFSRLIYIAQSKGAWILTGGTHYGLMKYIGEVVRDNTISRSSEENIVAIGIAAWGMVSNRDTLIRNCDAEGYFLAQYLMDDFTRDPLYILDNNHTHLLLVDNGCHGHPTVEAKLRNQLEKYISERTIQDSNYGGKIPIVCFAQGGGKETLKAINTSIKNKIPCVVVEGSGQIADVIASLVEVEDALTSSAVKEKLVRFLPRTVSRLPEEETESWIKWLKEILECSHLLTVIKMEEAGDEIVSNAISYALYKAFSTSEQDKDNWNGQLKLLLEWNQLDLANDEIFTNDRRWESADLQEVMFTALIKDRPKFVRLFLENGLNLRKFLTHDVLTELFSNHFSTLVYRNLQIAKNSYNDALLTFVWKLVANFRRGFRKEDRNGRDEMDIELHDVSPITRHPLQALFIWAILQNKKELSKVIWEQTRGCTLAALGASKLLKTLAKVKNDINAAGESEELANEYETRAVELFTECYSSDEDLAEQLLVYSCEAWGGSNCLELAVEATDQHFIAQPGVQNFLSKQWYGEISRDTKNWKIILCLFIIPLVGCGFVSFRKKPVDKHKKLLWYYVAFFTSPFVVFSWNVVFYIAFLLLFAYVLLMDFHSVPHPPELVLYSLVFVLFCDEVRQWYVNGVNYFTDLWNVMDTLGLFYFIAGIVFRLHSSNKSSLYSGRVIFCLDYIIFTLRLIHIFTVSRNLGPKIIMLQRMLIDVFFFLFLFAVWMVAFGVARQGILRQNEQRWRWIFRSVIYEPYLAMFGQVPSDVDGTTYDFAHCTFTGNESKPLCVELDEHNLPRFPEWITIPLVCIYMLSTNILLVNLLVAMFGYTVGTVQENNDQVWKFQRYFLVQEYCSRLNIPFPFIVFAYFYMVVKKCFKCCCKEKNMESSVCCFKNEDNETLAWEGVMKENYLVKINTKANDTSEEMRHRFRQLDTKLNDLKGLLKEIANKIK
Sequence of 5-hydroxytryptamine receptor 2B (Homo sapiens) (P41595 whole entry): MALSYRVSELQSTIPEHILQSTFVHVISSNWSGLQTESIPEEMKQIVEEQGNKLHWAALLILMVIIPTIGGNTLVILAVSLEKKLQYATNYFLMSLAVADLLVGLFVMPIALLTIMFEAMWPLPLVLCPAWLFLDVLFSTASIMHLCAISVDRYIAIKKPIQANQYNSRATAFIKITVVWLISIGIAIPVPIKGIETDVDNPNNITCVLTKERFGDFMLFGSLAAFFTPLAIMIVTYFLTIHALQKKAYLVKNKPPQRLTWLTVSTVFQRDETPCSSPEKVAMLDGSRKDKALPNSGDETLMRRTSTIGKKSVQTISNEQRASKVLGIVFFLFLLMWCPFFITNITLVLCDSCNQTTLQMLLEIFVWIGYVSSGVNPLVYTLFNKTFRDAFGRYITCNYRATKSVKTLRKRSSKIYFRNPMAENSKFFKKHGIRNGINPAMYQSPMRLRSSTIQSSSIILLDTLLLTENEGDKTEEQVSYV
Sequence of Mitogen-activated protein kinase 12 (Homo sapiens) (P53778 whole entry): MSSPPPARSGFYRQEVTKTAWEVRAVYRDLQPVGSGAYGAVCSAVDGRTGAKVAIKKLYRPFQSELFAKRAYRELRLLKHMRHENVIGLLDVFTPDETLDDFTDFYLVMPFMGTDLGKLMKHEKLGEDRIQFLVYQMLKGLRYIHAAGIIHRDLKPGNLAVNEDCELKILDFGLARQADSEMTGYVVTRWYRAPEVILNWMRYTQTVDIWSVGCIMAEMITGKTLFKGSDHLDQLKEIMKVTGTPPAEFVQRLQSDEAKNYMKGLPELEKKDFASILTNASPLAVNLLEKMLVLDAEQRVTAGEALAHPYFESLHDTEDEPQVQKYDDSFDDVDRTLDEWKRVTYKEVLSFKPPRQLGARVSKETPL
Sequence of Ephrin type-B receptor 4 (Homo sapiens) (P54760 whole entry): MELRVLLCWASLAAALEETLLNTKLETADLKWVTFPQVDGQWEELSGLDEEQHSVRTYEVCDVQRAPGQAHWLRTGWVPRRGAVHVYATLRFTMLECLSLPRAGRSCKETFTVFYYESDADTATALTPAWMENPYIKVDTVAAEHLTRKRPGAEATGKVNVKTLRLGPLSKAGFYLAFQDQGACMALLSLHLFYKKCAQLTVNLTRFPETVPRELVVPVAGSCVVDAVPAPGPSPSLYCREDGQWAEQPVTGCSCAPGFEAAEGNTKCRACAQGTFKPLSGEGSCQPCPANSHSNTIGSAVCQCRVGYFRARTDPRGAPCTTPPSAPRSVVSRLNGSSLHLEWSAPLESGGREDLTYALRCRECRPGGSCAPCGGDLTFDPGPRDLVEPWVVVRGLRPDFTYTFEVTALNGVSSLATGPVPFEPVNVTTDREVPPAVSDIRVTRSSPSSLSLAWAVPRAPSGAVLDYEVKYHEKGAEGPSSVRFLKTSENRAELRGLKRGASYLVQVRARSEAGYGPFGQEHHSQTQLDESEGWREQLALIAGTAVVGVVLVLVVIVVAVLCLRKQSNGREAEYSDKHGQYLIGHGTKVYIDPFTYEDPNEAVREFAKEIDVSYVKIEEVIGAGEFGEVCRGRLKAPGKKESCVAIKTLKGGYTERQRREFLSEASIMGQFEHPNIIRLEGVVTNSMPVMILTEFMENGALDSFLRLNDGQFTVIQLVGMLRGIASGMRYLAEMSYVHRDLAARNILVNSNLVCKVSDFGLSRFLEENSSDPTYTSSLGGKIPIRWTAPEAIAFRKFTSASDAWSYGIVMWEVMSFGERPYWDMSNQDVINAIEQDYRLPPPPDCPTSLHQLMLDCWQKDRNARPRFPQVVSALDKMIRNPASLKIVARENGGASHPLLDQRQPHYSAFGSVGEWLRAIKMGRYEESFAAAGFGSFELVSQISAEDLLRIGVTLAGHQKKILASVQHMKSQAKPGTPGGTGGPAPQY
Sequence of SRSF protein kinase 1 (Homo sapiens) (Q96SB4 whole entry): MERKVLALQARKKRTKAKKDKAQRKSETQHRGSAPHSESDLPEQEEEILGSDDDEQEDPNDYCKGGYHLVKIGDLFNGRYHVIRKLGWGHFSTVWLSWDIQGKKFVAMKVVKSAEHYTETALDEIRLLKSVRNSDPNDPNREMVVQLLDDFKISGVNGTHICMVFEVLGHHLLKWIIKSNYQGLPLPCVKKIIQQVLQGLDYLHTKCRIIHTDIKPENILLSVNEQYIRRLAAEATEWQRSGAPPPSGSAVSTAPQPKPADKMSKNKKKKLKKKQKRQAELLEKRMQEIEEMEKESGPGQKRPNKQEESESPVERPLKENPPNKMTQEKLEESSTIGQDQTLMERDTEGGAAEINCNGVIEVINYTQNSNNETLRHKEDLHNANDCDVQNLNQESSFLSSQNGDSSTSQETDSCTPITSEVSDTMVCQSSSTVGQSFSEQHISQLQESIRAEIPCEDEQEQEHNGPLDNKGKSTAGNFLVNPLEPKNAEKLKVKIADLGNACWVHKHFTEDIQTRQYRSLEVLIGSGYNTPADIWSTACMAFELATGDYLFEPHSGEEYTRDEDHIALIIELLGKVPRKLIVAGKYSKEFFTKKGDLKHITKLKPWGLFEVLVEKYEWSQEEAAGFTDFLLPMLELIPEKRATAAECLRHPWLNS
Sequence of Mitogen-activated protein kinase 9 (Homo sapiens) (P45984 whole entry, looked up): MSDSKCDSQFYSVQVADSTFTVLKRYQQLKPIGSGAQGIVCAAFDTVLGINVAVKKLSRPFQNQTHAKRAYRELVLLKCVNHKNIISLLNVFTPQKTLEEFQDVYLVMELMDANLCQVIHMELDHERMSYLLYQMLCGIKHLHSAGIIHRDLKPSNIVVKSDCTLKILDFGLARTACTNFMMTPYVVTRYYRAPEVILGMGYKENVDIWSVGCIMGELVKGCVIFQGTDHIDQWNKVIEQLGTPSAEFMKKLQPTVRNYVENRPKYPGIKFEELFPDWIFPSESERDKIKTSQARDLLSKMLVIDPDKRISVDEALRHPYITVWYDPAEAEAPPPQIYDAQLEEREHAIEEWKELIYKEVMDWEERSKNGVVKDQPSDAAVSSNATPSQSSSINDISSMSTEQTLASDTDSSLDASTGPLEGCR
Sequence of Serine/threonine-protein kinase Sgk3 (Homo sapiens) (Q96BR1 whole entry): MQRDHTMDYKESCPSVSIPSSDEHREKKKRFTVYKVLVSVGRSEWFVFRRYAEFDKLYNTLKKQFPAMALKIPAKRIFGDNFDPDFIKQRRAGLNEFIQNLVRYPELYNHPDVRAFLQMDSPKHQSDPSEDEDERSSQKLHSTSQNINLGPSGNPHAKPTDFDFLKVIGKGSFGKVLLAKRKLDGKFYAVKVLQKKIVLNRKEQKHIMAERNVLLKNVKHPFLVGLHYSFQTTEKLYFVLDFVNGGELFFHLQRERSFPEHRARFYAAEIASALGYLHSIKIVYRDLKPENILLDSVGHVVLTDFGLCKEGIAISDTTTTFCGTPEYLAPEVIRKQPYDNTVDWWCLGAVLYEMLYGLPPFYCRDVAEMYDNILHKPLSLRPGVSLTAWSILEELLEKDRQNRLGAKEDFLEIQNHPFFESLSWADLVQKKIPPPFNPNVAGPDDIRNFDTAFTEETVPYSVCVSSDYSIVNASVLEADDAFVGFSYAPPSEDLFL
Sequence of Histamine H3 receptor (Homo sapiens) (Q9Y5N1 whole entry): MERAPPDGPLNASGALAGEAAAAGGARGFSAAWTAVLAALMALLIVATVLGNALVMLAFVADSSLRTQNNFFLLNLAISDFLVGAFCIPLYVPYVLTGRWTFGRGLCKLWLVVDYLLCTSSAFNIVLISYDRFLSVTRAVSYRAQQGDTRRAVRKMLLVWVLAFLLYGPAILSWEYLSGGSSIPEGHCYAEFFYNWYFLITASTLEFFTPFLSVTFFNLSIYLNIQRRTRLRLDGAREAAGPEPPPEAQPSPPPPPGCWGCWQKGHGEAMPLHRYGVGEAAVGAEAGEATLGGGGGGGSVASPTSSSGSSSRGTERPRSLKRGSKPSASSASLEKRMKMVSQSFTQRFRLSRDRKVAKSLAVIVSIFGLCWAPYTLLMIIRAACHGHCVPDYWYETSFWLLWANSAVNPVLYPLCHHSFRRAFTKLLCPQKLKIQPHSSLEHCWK

For `C[C@H](c1ccc(F)cc1)N(Cc1cccc(C(=O)O)c1)C(=O)c1cnc2ccccc2c1` [PF-05105679], the IC50 [1] was 13.8 nM (active), the IC50 [2] was 29.6 nM (active) and the inhibition [3] was 26%. The inhibition [4] was 18%, the residual activity [5] was 85% and the residual activity [6] was 100%. It also gave a residual activity [7] of 100%, a residual activity [8] of 69% and a residual activity [9] of 100%. The residual activity [10] was 94%, the residual activity [11] was 97% and the residual activity [12] was 100%. It also gave a residual activity [13] of 85%, a residual activity [14] of 92% and a residual activity [15] of 98%. The residual activity [16] was 96%, the residual activity [17] was 100% and the residual activity [18] was 74%. For the same molecule, the residual activity [19] was 100%, the residual activity [20] was 100% and the residual activity [21] was 89%. It also gave a residual activity [22] of 81%, a residual activity [23] of 100% and a residual activity [24] of 100%. It also gave a residual activity [25] of 100%, a residual activity [26] of 79% and a residual activity [27] of 65%. For the same molecule, the residual activity [28] was 100%, the residual activity [29] was 100% and the residual activity [30] was 100%. For the same molecule, the residual activity [31] was 100%, the residual activity [32] was 100% and the residual activity [33] was 100%. The residual activity [34] was 100%, the residual activity [35] was 100% and the residual activity [36] was 95%. It also gave a residual activity [37] of 100%, a residual activity [38] of 80% and a residual activity [39] of 100%. For the same molecule, the residual activity [40] was 100%, the residual activity [41] was 96% and the residual activity [42] was 97%. It also gave a residual activity [43] of 72%, an inhibition [44] of -1.69% and an inhibition [45] of 16.6%. The inhibition [46] was 3.68%.

Reference: ChEMBL document CHEMBL4507296 (2021)
